Laboratory results as given in US11224609B2, “Mithramycin derivatives having increased selectivity and anti-cancer activity” (University of Kentucky Research Foundation, priority 2017, dated 2022).

How the values were obtained:
[1] = tested on: 5838 Ewing sarcoma cells (EWS-ERG); test: 72 h GI50 assay in 5838; conditions: for GI50: read-out: 5838 Ewing Sarcoma EWS-ERG GI50, 72 h growth inhibition, 5838 cells; for Ratio of median GI50 Non-Ewing sarcoma cell lines (cf Table 3):5838: selectivity for 5838 cells
[2] = tested on: Ewing sarcoma cell lines (TC-32, 5838, RD-ES, TC-71, A-673, ES-2, ES-7, ES-8); test: Median GI50 in panel of Ewing sarcoma cell lines; conditions: for Ratio of Median GI50 non-Ewing sarcoma:Ewing sarcoma (Selectivity Index): median GI50 non-Ewing panel over Ewing panel; for GI50: read-out: Median GI50 in Ewing sarcoma cell lines, median over 8 Ewing sarcoma cell lines, 72 h; for Selectivity Index ratio Analogues:MTM (1): selectivity index relative to MTM (1)
[3] = tested on: RD-ES Ewing sarcoma cells (EWS-FLI1 Type 2); test: 72 h GI50 assay in RD-ES; conditions: read-out: RD-ES EWS-FLI1 Type 2 GI50; 72 h growth inhibition
[4] = tested on: EWS-FLI1 mRNA; test: Relative mRNA expression (qRT-PCR) of EWS-FLI1 in TC-32 cells; type: cell-based; conditions: 6 and 12 h treatments at GI50
Description: (§1) TC-32 cells were seeded in 6-well plates at a density of 300,000 cells/well. […] After 6 and 12 h treatments media was removed. Cells were washed with DPBS and 500 μL of 0.05% Trypsin with 0.53 mM EDTA (Corning, Corning, N.Y.) was added. After a 2-3 min incubation, cells detached from the plate and 1 mL of fresh RPMI media was immediately added. Cells were collected in 1.5 mL tubes on ice and centrifuged to a pellet at 1200× g for 5 min. Supernatant was removed and cell pellets were lysed with 600 μL of RLT lysis buffer (Qiagen, Hilden, Germany). Lysates were centrifuged through QIAshredder inserts for complete cell disruption (Qiagen, Hilden, Germany). RNeasy mini spin columns were used to isolate pure RNA (Qiagen, Hilden, Germany). RNA concentrations were measured using NanoDrop 2000 Spectrometer (Thermo Fisher Scientific, Waltham, Mass.) and a 100 ng/μL stock solution was prepared. RNA (1 μg) was used to prepare cDNA with a MultiScribe reverse transcriptase (Thermo Fisher Scientific, Waltham, Mass.). qRT-PCR reactions were conducted using Maxima SYBR green Taq DNA Polymerase (Thermo Fisher Scientific, Waltham, Mass.). EpMotion5070 (Eppendorf, Hamburg, Germany) robot was used to mix reactions in 384 well plates and thermocycling was completed on a QuantStudio 7 Flex (Thermo Fisher Scientific, Waltham, Mass.). […]

[5] = tested on: TC-32 (Ewing sarcoma, EWS-FLI1 Type 1) cell line; conditions: for TC-32 Ewing sarcoma EWS-FLI1 Type 1 GI50: 72 h growth inhibition, TC-32 cells; for GI50 ratio PC-3:TC-32: selectivity, GI50 in PC-3 over GI50 in TC-32
[6] = tested on: NR0B1 mRNA; test: Relative mRNA expression (qRT-PCR) of NR0B1 in TC-32 cells; type: cell-based; conditions: 6 and 12 h treatments at GI50
Description: as §1

[7] = tested on: DMS 114 cells; test: 72 h GI50 assay in DMS 114; conditions: read-out: DMS 114 GI50; 72 h growth inhibition

SMILES	GI50 [1] [nM]	Ratio of median GI50 Non-Ewing sarcoma cell lines (cf Table 3):5838 [1]	Ratio of Median GI50 non-Ewing sarcoma:Ewing sarcoma (Selectivity Index) [2]	GI50 [2] [nM]	Selectivity Index ratio Analogues:MTM (1) [2]	GI50 [3] [nM]	EWS-FLI1 mRNA expression [4]	TC-32 Ewing sarcoma EWS-FLI1 Type 1 GI50 [5] [nM]	GI50 ratio PC-3:TC-32 [5]	NR0B1 mRNA expression [6]	GI50 [7] [nM]
COC(=O)C(Cc1c[nH]c2ccccc12)NC(=O)C(Cc1c[nH]c2ccccc12)NC(=O)C(OC)C1Cc2cc3cc(OC4CC(OC5CC(O)C(O)C(C)O5)C(O)C(C)O4)c(C)c(O)c3c(O)c2C(=O)C1OC1CC(OC2CC(OC3CC(C)(O)C(O)C(C)O3)C(O)C(C)O2)C(O)C(C)O1 (stereo not shown) [Analogue 61, MTMSA-Trp-Trp]	53	16.2	15.6	55	10.4	57	decreased	41	13.9	decreased	1120
COC(=O)C(Cc1c[nH]c2ccccc12)NC(=O)C(Cc1ccccc1)NC(=O)C(OC)C1Cc2cc3cc(OC4CC(OC5CC(O)C(O)C(C)O5)C(O)C(C)O4)c(C)c(O)c3c(O)c2C(=O)C1OC1CC(OC2CC(OC3CC(C)(O)C(O)C(C)O3)C(O)C(C)O2)C(O)C(C)O1 (stereo not shown) [Analogue 60, MTMSA-Phe-Trp]	149	6.7	19.1	52	12.7	50	decreased	47	24.0	decreased	1140
